# Source: PubChem BioAssay AID652247 (Sanford-Burnham Center for Chemical Genomics, 2013)
# Activity calls are given as the source filed them. No rule for the calls is given here.
# Biological target: NEDD8-conjugating enzyme Ubc12 (Homo sapiens) + NEDD8-activating enzyme E1 regulatory subunit (Homo sapiens) (UniProt P61081+Q13564)
# Assay: NEDD8 conjugation to CUL1 blockade – biochemical, TR-FRET, dose response (AID 652247)
# Settings: in vitro CUL1 neddylation
# Chain of NEDD8-conjugating enzyme Ubc12 (Homo sapiens) + NEDD8-activating enzyme E1 regulatory subunit (Homo sapiens) (P61081 whole entry, looked up): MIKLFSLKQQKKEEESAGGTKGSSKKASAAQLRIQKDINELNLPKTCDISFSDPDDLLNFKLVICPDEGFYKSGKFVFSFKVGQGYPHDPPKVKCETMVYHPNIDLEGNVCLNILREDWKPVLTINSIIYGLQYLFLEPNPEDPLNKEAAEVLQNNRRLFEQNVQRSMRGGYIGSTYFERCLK
# Chain of NEDD8-conjugating enzyme Ubc12 (Homo sapiens) + NEDD8-activating enzyme E1 regulatory subunit (Homo sapiens) (Q13564 whole entry, looked up): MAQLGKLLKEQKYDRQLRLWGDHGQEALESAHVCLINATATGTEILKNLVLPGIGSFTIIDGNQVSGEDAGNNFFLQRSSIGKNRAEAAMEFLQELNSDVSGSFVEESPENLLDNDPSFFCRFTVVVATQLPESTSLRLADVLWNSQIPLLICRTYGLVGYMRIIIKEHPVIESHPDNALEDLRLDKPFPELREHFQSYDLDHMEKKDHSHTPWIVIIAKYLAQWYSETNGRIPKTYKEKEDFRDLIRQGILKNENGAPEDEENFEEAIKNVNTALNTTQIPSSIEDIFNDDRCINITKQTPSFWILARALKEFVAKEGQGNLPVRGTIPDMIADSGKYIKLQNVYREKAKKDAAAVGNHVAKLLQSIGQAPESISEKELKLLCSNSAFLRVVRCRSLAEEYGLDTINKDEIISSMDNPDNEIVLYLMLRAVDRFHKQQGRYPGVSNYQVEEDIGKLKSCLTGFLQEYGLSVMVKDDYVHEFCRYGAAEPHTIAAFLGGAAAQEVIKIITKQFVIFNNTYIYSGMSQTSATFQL
row,Compound,IC50
1,O=c1oc2ccccc2cc1-c1cn2cccnc2n1,inactive
2,COc1ccc(-c2cc(C(=O)N3CCN(c4ccccc4O)CC3)c3ccccc3n2)cc1OC,inactive
3,Cc1cc(NS(=O)(=O)c2ccc(NS(=O)(=O)c3ccc(Br)cc3)cc2)no1,inactive
4,CCN(CC)CCOC(=O)c1ccc(N/C=C(/C#N)c2nc(-c3ccc(OC)cc3)cs2)cc1,> 100 µM (inactive)
5,COc1ccc(C(=O)n2cc(C(=O)c3cc(C)ccc3O)cn2)cc1OC,inactive
6,Cc1ccccc1NC(=O)NNC(=O)c1ccc2ccccc2c1O,inactive
7,Nc1c(C(=O)Nc2ccccc2)c2nc3ccccc3nc2n1CCCN1CCOCC1,inactive
8,CC(=CCOc1ccc2ccc(=O)oc2c1)C1=CC(=O)C(C)(C)O1,inactive
9,Cc1cccn2c(=O)c(C=NCc3ccccc3)c(NCCO)nc12,inactive
10,COCCN1C=C(C(=O)OC)C(c2ccc3c(c2)OCO3)C(C(=O)OC)=C1,inactive
11,c1ccc(-c2oc3ncnc(NCCCN4CCOCC4)c3c2-c2ccccc2)cc1,inactive
12,CCOC(=O)C1=C(COCCN)NC(C)=C(C(=O)OC)C1c1ccccc1Cl (stereo not drawn),inactive
13,N#Cc1c2c(c(NCCOCCO)n3c1nc1ccccc13)CCCC2,inactive
14,Nc1ncnc2c1ncn2[C@@H]1O[C@H](COP(=O)(O)O)[C@@H](O)[C@H]1O,inactive
15,Cc1cc(-c2ccccc2)c2nncn2n1,inactive
16,COc1cc(OC)cc(-c2oc3cccnc3c2C#CCCO)c1,inactive
17,Cc1ccc2cc3cc(C(=O)NCCCN4CCc5ccccc5C4)oc3nc2c1,10.6 µM
18,CS(=O)(=O)c1ccc2nc(NC(=O)c3ccc(Cl)nc3)sc2c1,14 µM
19,O=C(N/N=C/c1c(O)n(-c2ccccc2Cl)c(=O)c2ccccc12)C1COc2ccccc2O1 (stereo not drawn),inactive
20,CCCCCCc1c(C)c2ccc(OCC(=O)N3CCC[C@H]3C(=O)O)c(C)c2oc1=O,inactive
21,COc1ccc2cc(C(=O)N/N=C/c3cc(OC)c(OC)c(OC)c3)[nH]c2c1,inactive
22,COc1ccc2[nH]c(C(=O)N/N=C/c3cc(OC)c(OC)c(OC)c3)cc2c1,inactive
23,Cc1nn(C)cc1CN(C)C(=O)c1cc2nc(-c3ccco3)cc(C(F)(F)F)n2n1,inactive
24,C=CCN1C(=O)C(CC(=O)O)S/C1=N/N=C/c1ccc(N(CC)CC)cc1 (stereo not drawn),inactive
25,COc1ccc(-n2cc(CNCc3cnc4ccccn34)c(-c3cccc(F)c3)n2)cc1,inactive
26,Cc1ccc2oc(-c3ccco3)cc(=O)c2c1,inactive

row,Compound,IC50
1,CCN(CC)c1ccc(/C=N/NC(=O)Cc2ccc(OC)c(OC)c2)cc1,inactive
2,CCNC(=O)/C(C#N)=C/c1c(N2CCN(c3ccccc3)CC2)nc2ccccn2c1=O,inactive
3,CC(=O)OCCc1c2ccccc2c(CCCN(C)C)c2ccccc12,11.9 µM
4,NNC(=O)c1ccc(CSc2cccc3cccnc23)cc1,inactive
5,Cc1cccc(C)c1NC(=O)C(c1ccncc1)n1c(=O)c(-c2ccccc2)nc2ccccc21 (stereo not drawn),inactive
6,O=C(CSc1cccc2cccnc12)Nc1cc(C(=O)O)cc(C(=O)O)c1,inactive
7,COc1ccc(C(C(=O)NCC2CCCO2)N(C(=O)c2snc(C(N)=O)c2N)c2ccccc2)cc1OC (stereo not drawn),inactive
8,COc1cc2sc(-c3ccc(S(C)(=O)=O)cc3)c(C#CCO)c2cc1OC,inactive
9,Cc1c(C(C)NC(=O)c2cc(COc3cccc4cnccc34)on2)cnn1C (stereo not drawn),inactive
10,O=C(NC1CCCCC1)c1cnn2c(C(F)(F)F)cc(-c3ccco3)nc12,inactive
11,COc1ccc(-c2cc3nc(NCCN4CCCC4)n(C)c(=O)c3s2)cc1OC,inactive
12,CCCCN(C)C(=O)c1cc2cc3ccc(OC)cc3nc2o1,inactive
13,CCOC(=O)c1cc2c(=O)n3ccccc3nc2n(CCOC)c1=NC(=O)c1ccncc1,inactive
14,COc1ccc(OC)c(C=NNC(=O)c2ccccc2NS(=O)(=O)c2cccs2)c1,inactive
15,O=C(Nc1cccnc1Cl)c1cc(-c2cccc(O)c2)on1,13.9 µM
16,COc1cccc(Cn2cc(/C=N/NC(=O)c3cc(O)cc(O)c3)c3ccccc32)c1,inactive
17,CC(=O)c1ccc(-c2ccc(C(=O)NCC(c3ccc(F)cc3)N3CCOCC3)o2)cc1 (stereo not drawn),inactive
18,O=C(O)c1sc2cc(C(F)(F)F)cnc2c1-c1cccs1,inactive
19,CC1(C)CC(NC(=O)COc2ccc3c4c(c(=O)oc3c2)CCCC4)CC(C)(C)N1,inactive
20,CSc1ccc(/C=C2\CCn3c2nc2cc(C(=O)O)ccc2c3=O)cc1,19.4 µM
21,Cc1ccc(C(=O)N/C(=C\c2cccs2)c2nc3ccccc3[nH]2)cc1,inactive
22,COc1ccccc1N1CCN(C(=O)c2cc3c(=O)n4cccc(C)c4nc3s2)CC1,inactive
23,CCOC(=O)C1CCCN(c2nc3ccccc3nc2NS(=O)(=O)c2ccc(C)cc2)C1 (stereo not drawn),inactive
24,Cn1ncc2cc3c(Nc4ccc(Cl)cc4)cccc3nc21,inactive
25,Cc1cc(C)cc(N(CC(=O)NC2CCCC2)C(=O)C2(C)CC(=O)N=C3C=CC=CN32)c1 (stereo not drawn),inactive
26,Cc1ccc2c(c1)COc1c3ccc(C(=O)NCCO)cc3nn1-2,inactive

row,Compound,IC50
1,COc1cc(/C=N/Nc2nc3ccccc3[nH]2)cc(Br)c1OCC(=O)N(C)C,inactive
2,COc1ccc(Nc2cc3n(c(=O)n2)CCc2cc(OC)c(OC)cc2-3)cc1,inactive
3,N=c1c(C(=O)NCCN2CCOCC2)cc2c(=O)n3ccccc3nc2n1Cc1ccc(F)cc1,16.5 µM
4,O=C(Nc1ccc2c(c1)OCO2)c1cc(-c2ccc(O)cc2)on1,inactive
5,COc1ccc(OC)c(C=NNC(=O)c2ccc(NS(=O)(=O)c3cccs3)cc2)c1,inactive
6,O=c1[nH]c2ccccc2nc1-c1ccccc1,inactive
7,CCOc1ccc(C(=O)N/N=C/c2ccc(-c3ccc(S(=O)(=O)Nc4ncccn4)cc3)o2)cc1,inactive
8,COc1cccc(N(C(=O)c2snc(C(N)=O)c2N)C(C(=O)NCc2ccccc2)c2ccc(O)cc2)c1 (stereo not drawn),inactive
9,Cc1cccn2c(=O)c3cc(C(=O)N4CCN(Cc5ccccc5)CC4)sc3nc12,17.9 µM
10,CC(=O)Nc1ccc(NC(=O)c2cc(-c3ccc(C)cc3O)n[nH]2)cc1,9.68 µM
11,COC(=O)c1nc2cc3c(cc2c(C)c1C(=O)OC)OCO3,inactive
12,O=C(CN1c2cccc3cccc(c23)S1(=O)=O)NCc1ccc(F)cc1,inactive
13,COCCNC(=O)COC(=O)c1cc(-c2ccc(OC)cc2)nc2ccccc12,inactive
14,CC1CCCC(C)N1C(=O)CN1c2cccc3cccc(c23)S1(=O)=O (stereo not drawn),inactive
15,COCCNC(=O)CSc1ccc(-c2nc3ccccc3[nH]2)cn1,inactive
16,CN(C)c1ccc(/C=N/NC(=O)C2CC2c2ccccc2)cc1 (stereo not drawn),inactive
17,Cc1cc(NC(=O)COC(=O)c2nccnc2N)n(-c2ccccc2)n1,13.2 µM
18,CCN(/N=C/c1ccc(N(C)C)cc1)c1nc2ccccc2[nH]1,inactive
19,Cc1ccc2c(c1)COc1c3ccc(C(=O)NCC4CC4)cc3nn1-2,inactive
20,COC(=O)C1C(O)=C(C=Nc2cccc3ccccc23)C(=O)CC1(C)C (stereo not drawn),inactive
21,COC(=O)c1ccc(-c2ccc(/C=N/NC(=O)CC3(C)OCCCO3)o2)cc1,inactive
22,Cn1nc(/C=C/c2ccccc2)ccc1=O,inactive
23,O=C(N/N=C/c1cccnc1)c1ccc(CN2c3cccc4cccc(c34)S2(=O)=O)cc1,inactive
24,COc1ccc(CCNc2oc(-c3ccco3)nc2C#N)cc1,inactive
25,CCOc1ccccc1NC(=O)CN1c2cccc3cccc(c23)S1(=O)=O,inactive
26,COc1ccccc1/C=N/NC(=O)c1ccccc1NS(=O)(=O)c1ccc(C)cc1,inactive

row,Compound,IC50
1,CCOC(=O)N1CCN(S(=O)(=O)c2ccc3c4c(cccc24)C(=O)N3)CC1,inactive
2,COC(=O)C1=C(C)NC2=C(C(=O)CCC2)C1c1ccc(-c2ccsc2C(=O)OC)o1 (stereo not drawn),inactive
3,CCN(CC)c1ccc(/C=N/NC(=O)CC(C)C)cc1,inactive
4,COc1ccc(/C=C/c2ccc(=O)n(Cc3ccccc3)n2)cc1,> 100 µM (inactive)
5,C[n+]1ccc(-c2ccccc2)c2ccccc21,> 100 µM (inactive)
6,CC1CCN(C(=O)Nc2ccc3nsnc3c2)CC1,inactive
7,CCOC(=O)c1cc2c(=O)n3ccccc3nc2n(C(C)C)c1=NC(=O)c1ccncc1,inactive
8,COc1ccc(C[C@H]2c3cc(O)c(OC)cc3CC[N+]2(C)[O-])cc1O (stereo partly drawn),inactive
9,N#Cc1ccc(/C=C2\CCn3c2nc2cc(C(=O)O)ccc2c3=O)cc1,14.5 µM
10,Cc1cccc(OCC(=O)N/N=C/c2ccc(N(C)C)cc2)c1,inactive
11,CCN(CC)c1ccc(/C=N/NC(=O)C(O)c2ccccc2)cc1 (stereo not drawn),inactive
12,CC(C)(C)c1ccc(/C=C2\CCn3c2nc2cc(C(=O)O)ccc2c3=O)cc1,inactive
13,CCC(=O)Nc1nnc(/C=C/c2ccccc2)s1,> 100 µM (inactive)
14,CN(C)c1ccc(/C=N/NC(=O)COc2ccccc2)cc1,inactive
15,CCOc1ccc2[nH]c3ncccc3c(=O)c2c1,inactive
16,O=C1NC(=O)c2cc3ccccc3cc21,> 100 µM (inactive)
17,O=C(O)c1ccc2c(=O)n3c(nc2c1)/C(=C/c1ccc(OC(F)F)cc1OC(F)F)CC3,inactive
18,COc1ccc(C(CC(=O)N2CCCCC2)c2c(OC)cc(OC)c3ccc(=O)oc23)cc1 (stereo not drawn),inactive
19,CCOC(=O)Cn1nc(/C=C/c2ccccc2)ccc1=O,inactive
20,COCc1cc(C)nc2sc(C(=O)Nc3ccc(OC)cc3)c(N)c12,> 100 µM (inactive)
21,COc1ccccc1N(C(=O)c1snc(C(N)=O)c1N)C(C(=O)NC1CCCC1)c1ccco1 (stereo not drawn),inactive
22,Cc1ccc(Cn2c(=N)c(C(=O)NCCN3CCOCC3)cc3c(=O)n4ccccc4nc32)cc1,17.5 µM
23,CCOc1ccc(NC(=O)COC(=O)c2ccc3ncsc3c2)cc1OCC,inactive
24,c1cc2c3c(cccc3c1)-c1cnccc1-2,inactive
25,Nc1ncnc2c1ncn2C1OC(COP(=O)(O)O)C(O)C1O (stereo not drawn),17.4 µM
